Assays:
[1] = In vitro cytotoxicity, fluorescent Resazurin assay, HL60; conditions: human, HL60 (HL-60) promyelocytic leukemia cells, In vitro cytotoxicity [IC50, μM] HL60, HL60 cells, 72 h incubation, 1–30 μM, mean ± standard deviation
Source text: (§1) The in vitro cytotoxicity of the several synthesized compounds was also investigated. […] During the measurements, the fluorescent Resazurin assay as described previously was applied.[19]
(§2) Cells were purchased from the American Type Culture Collection (ATCC, Manassas, Virginia, USA). Human lung adenocarcinoma A549 cells were maintained in Dulbecco’s modified Eagle’s medium (DMEM), while mouse fibroblast NIH/3T3 and human promyelocytic leukemia HL-60 cells were maintained in Roswell Park Memorial Institute 1640 medium (RPMI-1640) containing 10% FCS. Media were supplemented with 2 mM GlutaMAX, 100 U/mL penicillin, and 100 μg/mL streptomycin (Life Technologies, Carlsbad, California, USA). Cell cultures were maintained at 37 °C in a humidified incubator in an atmosphere of 5% CO2 (Sanyo, Japan).
(§3) Cytotoxicity of the synthesized molecules was determined on A549, NIH/3T3, and HL-60 cells using the fluorescent Resazurin assay as described previously.[19]
(§4) Briefly, cells (A549 and NIH/3T3: 6000, HL-60: 120.000 cells/well) were seeded into 96-well plates (Corning Life Sciences) in media and incubated overnight. Test compounds were dissolved in 3-fold amounts of dimethyl sulfoxide (DMSO). Cells were treated with an increasing concentration of test compounds (1–30 μM). […] Cell viability was determined after 72 h incubation. Resazurin reagent (Sigma-Aldrich) was added at a final concentration of 25 μg/mL. After a 2 h incubation for at 37 °C, 5% CO2, fluorescence (530 nm excitation/580 nm emission) was recorded on a multimode microplate reader (Cytofluor4000, PerSeptive Biosytems). Viability was calculated with relation to untreated control cells and blank wells containing media without cells.

[2] = In vitro cytotoxicity, fluorescent Resazurin assay, A549; type: cell-based; conditions: human, A549 lung adenocarcinoma cells, 72 h incubation, 1–30 μM, mean ± standard deviation
[3] = In vitro cytotoxicity, fluorescent Resazurin assay, NIH/3T3; conditions: mouse, NIH/3T3 fibroblast cells
Source text: as §1, §2, §3, §4

[4] = tested on: human promyelocytic leukemia (HL60) cell line; assay: In vitro cytotoxicity, fluorescent Resazurin assay, HL60; conditions: read-out: In vitro cytotoxicity [IC50, μM] HL60, HL60 cells, 72 h incubation, 1–30 μM, mean ± standard deviation
Source text: as §1, §2, §3, §4

melting point | Structure (SMILES) | IC50 at 72 h [1] | IC50 at 72 h [2] | IC50 at 72 h [3] | IC50 [4]
192 to 193 °C | CCCCN/C=C1/C(=O)c2cc(C)ccc2OC1P(=O)(c1ccc2ccccc2c1)c1ccc2ccccc2c1 (stereo not shown) [9a, (Z)-3-[(Butylamino)methylene]-2-[di(naphthalen-2-yl)phosphoryl]-6-methylchroman-4-one] | – | – | – | –
243 to 244 °C | Cc1ccc2c(c1)C(=O)/C(=C/Nc1ccccc1)C(P(=O)(c1ccccc1)c1ccccc1)O2 (stereo not shown) [2b, (Z)-3-[(Phenylamino)methylene]-2-(diphenylphosphoryl)-6-methylchroman-4-one] | – | – | – | –
171 to 172 °C | Cc1ccc2c(c1)C(=O)/C(=C/NC1CCCCC1)C(P(=O)(c1ccc3ccccc3c1)c1ccc3ccccc3c1)O2 (stereo not shown) [9b, (Z)-3-[(Cyclohexylamino)methylene]-2-[di(naphthalen-2-yl)phosphoryl]-6-methylchroman-4-one] | – | – | – | –
181 to 182 °C | Cc1ccc2c(c1)C(=O)/C(=C/NCCO)C(P(=O)(c1ccccc1)c1ccccc1)O2 (stereo not shown) [2g, (Z)-3-[(Ethanolamino)methylene]-2-(diphenylphosphoryl)-6-methylchroman-4-one] | > 30 µM | > 30 µM | 20.7 ± 1.02 µM | –
186 to 187 °C | CCCCN/C=C1/C(=O)c2cc(C)ccc2OC1P(=O)(c1ccc(C)cc1)c1ccc(C)cc1 (stereo not shown) [7a, (Z)-3-[(Butylamino)methylene]-2-(di-p-tolylphosphoryl)-6-methylchroman-4-one] | – | – | – | –
196 to 197 °C | Cc1ccc2c(c1)C(=O)/C(=C/NCc1ccccc1)C(P(=O)(c1ccccc1)c1ccccc1)O2 (stereo not shown) [2d, (Z)-3-[(Benzylamino)methylene]-2-(diphenylphosphoryl)-6-methylchroman-4-one] | – | – | – | –
198 to 199 °C | Cc1ccc2c(c1)C(=O)/C(=C/NC1CCCCC1)C(P(=O)(c1ccccc1)c1ccccc1)O2 (stereo not shown) [2c, (Z)-3-[(Cyclohexylamino)methylene]-2-(diphenylphosphoryl)-6-methylchroman-4-one] | – | – | – | –
176 to 177 °C | Cc1ccc2c(c1)C(=O)/C(=C/NCCCO)C(P(=O)(c1ccccc1)c1ccccc1)O2 (stereo not shown) [2f, (Z)-3-[(Propanolamino)methylene]-2-(diphenylphosphoryl)-6-methylchroman-4-one] | 27.4 ± 1.13 µM | > 30 µM | > 30 µM | –
145 to 146 °C | CCCCN/C=C1/C(=O)c2cc(C)ccc2OC1P(=O)(c1cc(C)cc(C)c1)c1cc(C)cc(C)c1 (stereo not shown) [8a, (Z)-2-[Bis(3,5-dimethylphenyl)phosphoryl]-3-[(butylamino)methylene]-6-methyl-chroman-4-one] | ~15 µM | > 30 µM | > 30 µM | 14.8 ± 1.13 µM
155 to 156 °C | Cc1cc(C)cc(P(=O)(c2cc(C)cc(C)c2)C2Oc3ccc(C)cc3C(=O)/C2=C/NC2CCCCC2)c1 (stereo not shown) [8c, (Z)-2-[Bis(3,5-dimethylphenyl)phosphoryl]-3-[(cyclohexylamino)methylene]-6-methylchroman-4-one] | ~15 µM | > 30 µM | > 30 µM | –
205 to 206 °C | Cc1ccc(P(=O)(c2ccc(C)cc2)C2Oc3ccc(C)cc3C(=O)/C2=C/NC2CCCCC2)cc1 (stereo not shown) [7b, (Z)-3-[(Cyclohexylamino)methylene]-2-(di-p-tolylphosphoryl)-6-methylchroman-4-one] | – | – | – | –
182 to 183 °C | Cc1ccc2c(c1)C(=O)/C(=C/NC(c1ccccc1)c1ccccc1)C(P(=O)(c1ccccc1)c1ccccc1)O2 (stereo not shown) [2e, (Z)-3-[(Benzhydrylamino)methylene]-2-(diphenylphosphoryl)-6-methylchroman-4-one] | 9.91 ± 1.28 µM | > 30 µM | > 30 µM | –
192 to 193 °C | CCCCN/C=C1/C(=O)c2cc(C)ccc2OC1P(=O)(c1ccccc1)c1ccccc1 (stereo not shown) [2a, (Z)-3-[(Butylamino)methylene]-2-(diphenylphosphoryl)-6-methylchroman-4-one] | – | – | – | –
198 to 199 °C | Cc1ccc(P(=O)(c2ccc(C)cc2)C2Oc3ccc(C)cc3C(=O)/C2=C/NCc2ccccc2)cc1 (stereo not shown) [7c, (Z)-3-[(Benzylamino)methylene]-2-(di-p-tolylphosphoryl)-6-methylchroman-4-one] | – | – | – | –

Continued, compound first:

Structure (SMILES) | melting point | IC50 at 72 h [1] | IC50 at 72 h [2] | IC50 at 72 h [3] | IC50 [4]
CC(C)C[C@H](NC(=O)[C@H](Cc1ccccc1)NC(=O)c1cnccn1)B(O)O [bortezomib, reference compound] | – | 0.00742 µM | – | – | –
Cc1ccc2occ(C(Nc3ccccc3)P(=O)(c3ccc4ccccc4c3)c3ccc4ccccc4c3)c(=O)c2c1 (stereo not shown) [compound 6, 3-{(Phenylamino)[di(naphthalen-2-yl)phosphoryl]methyl}-6-methyl-4H-chromen-4-one] | 223 to 224 °C | – | – | – | –
Cc1ccc2occ(C(Nc3ccccc3)P(=O)(c3ccccc3)c3ccccc3)c(=O)c2c1 (stereo not shown) [1b, 3-[(Phenylamino)(diphenylphosphoryl)methyl]-6-methyl-4H-chromen-4-one] | 239 to 240 °C | – | – | – | –
Cc1ccc2occ(C(O)P(=O)(c3ccccc3)c3ccccc3)c(=O)c2c1 (stereo not shown) [compound 3, 3-[(Diphenylphosphoryl)(hydroxy)methyl]-6-methyl-4H-chromen-4-one] | 190 to 192 °C | – | – | – | –
COc1ccc(NC(c2coc3ccc(C)cc3c2=O)P(=O)(c2ccccc2)c2ccccc2)cc1 (stereo not shown) [1c, 3-[(4-Methoxyphenylamino)(diphenylphosphoryl)methyl]-6-methyl-4H-chromen-4-one] | 224 to 225 °C | – | – | – | –
Cc1cc(C)cc(P(=O)(c2cc(C)cc(C)c2)C2Oc3ccc(C)cc3C(=O)/C2=C/NCc2ccccc2)c1 (stereo not shown) [8d, (Z)-3-[(benzylamino)methylene]-2-[bis(3,5-dimethylphenyl)phosphoryl]-6-methylchroman-4-one] | – | ~15 µM | 18.5 ± 1.08 µM | 14.2 ± 1.12 µM | 13.2 ± 1.32 µM
Cc1ccc(P(=O)(c2ccc(C)cc2)C(Nc2ccccc2)c2coc3ccc(C)cc3c2=O)cc1 (stereo not shown) [compound 4, 3-[(Phenylamino)(di-p-tolylphosphoryl)methyl]-6-methyl-4H-chromen-4-one] | 245 to 246 °C | – | – | – | –
Cc1ccc2occ(C(Nc3ccc(Cl)cc3)P(=O)(c3ccccc3)c3ccccc3)c(=O)c2c1 (stereo not shown) [1d, 3-[(4-Chlorophenylamino)(diphenylphosphoryl)methyl]-6-methyl-4H-chromen-4-one] | 235 to 236 °C | – | – | – | –
CCCCNC(c1coc2ccc(C)cc2c1=O)P(=O)(c1ccccc1)c1ccccc1 (stereo not shown) [1a, 3-[(Butylamino)(diphenylphosphoryl)methyl]-6-methyl-4H-chromen-4-one] | 187 to 188 °C | – | – | – | –
Cc1cc(C)cc(P(=O)(c2cc(C)cc(C)c2)C(Nc2ccccc2)c2coc3ccc(C)cc3c2=O)c1 (stereo not shown) [compound 5, 3-{(Phenylamino)[bis(3,5-dimethylphenyl)phosphoryl]methyl}-6-methyl-4H-chromen-4-one] | 229 to 230 °C | – | – | – | –
